Measured values as given in patent publication US6235891A, “Glucocorticoid receptor agonist and decreased PP5” (South Alabama Medical Science Foundation, priority 1999, dated 2001).

System: PP5 mRNA
Test: Northern blot analysis of PP5 mRNA expression in A549 cells
Assay type: cell-based, human
Conditions: doses of 25 to 500 nM, read-out: IC50 for reduction of PP5 mRNA levels
Description: The oligonucleotides shown in Table 1 were designed using the Genbank sequences HSSERTHRP (Genbank accession number X92121), HSRNAPPP5 (Genbank accession number X89416) and PPP5C (Genbank accession number U25174), synthesized and tested for inhibition of PP5 mRNA expression in A549 cells using a Northern blot assay. All oligonucleotides shown in Table 1 are chimeric oligonucleotides with central 2'-deoxy "gaps," which have phosphorothioate backbones, flanked on both sides by 2'-methoxyethoxy (2'-MOE) "wings" (shown in bold), which have phosphodiester backbones. All cytosines in the 2'-MOE wings are 5-methylcytosines.
In the initial screen, A549 cells were treated with oligonucleotides at a concentration of 300 nM oligonucleotide for four hours in the presence of […] lipofectin. Results were normalized and expressed as a percent of control. The effect of each oligonucleotide on levels of PP5 mRNA, expressed as approximate percent inhibition compared to control, is shown in Table 1. In this initial screen, oligonucleotides giving a reduction of PP5 mRNA of approximately 50% or greater were considered active. […] These sequences (SEQ ID NO: 1, 2, 3, 4, 6, 7 and 12, respectively, SEQ ID Nos shown in bold in Table 1) are therefore preferred.
These oligonucleotides were tested for their ability to reduce PP5 mRNA levels in A549 cells, using oligonucleotide doses of 25 to 500 nM.
The human lung tumor cell line A549 was obtained from the American Type Culture Collection (Rockville Md.) and were grown in DMEM (Gibco BRL, Gaithersburg Md.), supplemented with 10% fetal calf. Cells were seeded on 60 mm plates. When they reached 70% confluency, they were washed with DMEM and 1 ml of DMEM containing 15 μg/ml DOTMA/DOPE (Lipofectin®, GIBCO-BRL) and oligonucleotide at desired concentration was added. Duplicate dishes were used for each treatment condition. After 4 hours of treatment at 37°, cells were washed and cultured in fresh DMEM containing 10% fetal bovine serum for an additional 17 hours. Cells were then harvested and total RNA was extracted with TRIzol Reagent (GIBCO-BRL) according to manufacturer's protocol. Total RNA (20 μg) was fractionated on a 1% agarose gel containing formaldehyde, and transferred to a DURLON-UV (Stratagene) nylon membrane. Following UV crosslinking, the filters were hybridized with the appropriate protein phosphatase probe. The ^32 P-labeled human PP cDNA probes are generated with DECAPrime® DNA Labeling Kit (Ambion) according to the manufacturer's protocol. Hybridization was performed in a hybridization solution containing 50% formamide at 42° for 16 hours. This was followed by two low stringency washes (2×SSC) at room temperature and two high stringency washes (0.1×SSC/0.5% SDS) at 55° C. Hybridization signals were visualized by autoradiography, and filters were then stripped and reprobed with a ^32 P-labeled glyceraldehyde-3-phosphate dehydrogenase (GAPDH) probe to confirm equal loading. The densities of hybridization signals were measured with the NIH Image program (ImagePC).
The cells were harvested, and total RNA was extracted with TRIzol® Reagent according to the methods of the manufacturer. Total RNA (20 μg) was fractionated on 1% agarose gels containing formaldehyde and transferred to DURLON-UV nylon membranes (Stratagene). Following UV cross-linking, the filters were hybridized with a [α^32 P]probe for human PP5. The human PP5 cDNA probe was generated from the full length coding region of PP5 and [α^32 P]-dATP was labeled with DECAprime® DNA Labeling Kit according to the manufacturer's protocol. Hybridization was performed in the presence of 50% formamide, 0.1 M Pipes, 0.8 M NaCl, 5×Denhardt's solution, 100 μg/ml denatured herring sperm DNA, 1×10^6 cpm/ml [α-^32 P]-labeled probe and 10% dextran sulfate at 42° C. for 16 hours. Following hybridization, the membrane was subjected to two low stringency washes (2×SSC) at room temperature and then two high stringency washes (0.1×SSC/0.5% SDS) at 55° C. […]

## ISIS 15534: chimeric PP5 antisense oligonucleotide, P=O wings, P=S deoxy gap; GGGCCCTATTGCTTGAGTGG, SEQ ID NO: 12 (sugars by position and backbone not given here; chimeric, phosphodiester wings, phosphorothioate deoxy gap)
  IC50: ~135 nM
